# Literature values as cited in patent US20120264961A1, “FE3O4-M(AU-LIKE)-NANOPARTICLES FOR ANTIBODY-CONSERVING TARGET-SPECIFIC PLATIN DELIVERY” (Brown University, priority 2009, published 2012).
# Conditions: water solubility
structure (smiles),measurement,value
N.N.O=C([O-])C1(C(=O)[O-])CCC1.[Pt+2] [carboplatin],solubility,22 mg/mL
